“Also recorded” adds a separate entry of the source.
Tested on: recurrent or metastatic cervical cancer
Assay: Phase 3 trial, cemiplimab versus IC chemotherapy: quality of life, EORTC QLQ-C30 (GHS/QoL, functioning and symptom scales), MMRM LS mean change from baseline
Format: in vivo, human
Method: QOL is measured by the EORTC QLQ-C30.
Quality of Life Questionnaires: Patient-reported outcomes are measured using the validated patient self-administered EORTC QLQ-C30 questionnaire. Patients are asked to complete these questionnaires prior to any study procedures being performed at a given study visit (during the on-study/treatment and follow-up periods).
QoL: Longitudinal change from baseline at each PRO assessment in the GHS/QoL and PF scales was analyzed using a mixed model with repeated measures (MMRM). Higher scores on these scales indicate better health status/function. […] The model generated least squares (LS) mean estimates, standard errors, 95% CIs and p-values (where applicable) for mean changes from baseline on each PRO assessment.
At baseline and Day 1 of each treatment cycle (up to 16), patients were administered the EORTC QLQ-030. Mixed-effects repeated measures models estimated least squares (LS) mean change from baseline across all scales. Responder analyses determined the proportions with clinically meaningful (using 10-point threshold) improvement or deterioration, or stability on QLQ-030.

[1] = SCC patients, Overall Across Cycles
[2] = overall population, Overall Across Cycles

For cemiplimab, the “Difference in LS mean change, Cemiplimab versus Chemotherapy, Physical Functioning” value (SCC patients, C5D1) was 6.86, the “LS mean change from baseline, EORTC QLQ-C30 GHS/QoL” value (SCC patients, C5D1) was 0.85 and the “LS mean change from baseline, EORTC QLQ-C30 Physical Functioning” value (SCC patients, C5D1) was −0.17. For the same substance, the “Difference in LS mean change, Cemiplimab versus Chemotherapy, GHS/QoL” value (“Difference in LS mean change … GHS/QoL” for short) (SCC patients, C6D1) was 6.83, the “Difference in LS mean change, Cemiplimab versus Chemotherapy, Physical Functioning” value (SCC patients, C6D1) was 7.11 and the “LS mean change from baseline, EORTC QLQ-C30 GHS/QoL” value (SCC patients, C6D1) was −0.17. The “LS mean change from baseline, EORTC QLQ-C30 Physical Functioning” value (SCC patients, C6D1) was 0.82, the “Difference in LS mean change … GHS/QoL” value (SCC patients, C7D1) was 11.25 and the “Difference in LS mean change, Cemiplimab versus Chemotherapy, Physical Functioning” value (SCC patients, C7D1) was 14.30. For the same substance, the “LS mean change from baseline, EORTC QLQ-C30 GHS/QoL” value (SCC patients, C7D1) was 2.09, the “LS mean change from baseline, EORTC QLQ-C30 Physical Functioning” value (SCC patients, C7D1) was −0.07 and the “Difference in LS mean change … GHS/QoL” value [1] was 8.49. For the same substance, the “Difference in LS mean change, Cemiplimab versus Chemotherapy, Physical Functioning” value [1] was 8.35, the “LS mean change from baseline, EORTC QLQ-C30 GHS/QoL” value [1] was 1.18 and the “LS mean change from baseline, EORTC QLQ-C30 Physical Functioning” value [1] was 1.01. The “Difference in LS mean change … GHS/QoL” value (overall population, C2D1) was 3.25, the “LS mean change from baseline, EORTC QLQ-C30 GHS/QoL” value (overall population, C2D1) was −1.03 and the “LS mean change from baseline, EORTC QLQ-C30 Physical Functioning” value (overall population, C2D1) was −2.41. For the same substance, the “Difference in LS mean change … GHS/QoL” value (overall population, C3D1) was 7.41, the “Difference in LS mean change, Cemiplimab versus Chemotherapy, Physical Functioning” value (overall population, C3D1) was 6.02 and the “LS mean change from baseline, EORTC QLQ-C30 GHS/QoL” value (overall population, C3D1) was 1.19. The “LS mean change from baseline, EORTC QLQ-C30 Physical Functioning” value (overall population, C3D1) was 0.49, the “Difference in LS mean change … GHS/QoL” value (overall population, C4D1) was 10.55 and the “Difference in LS mean change, Cemiplimab versus Chemotherapy, Physical Functioning” value (overall population, C4D1) was 932. For the same substance, the “LS mean change from baseline, EORTC QLQ-C30 GHS/QoL” value (overall population, C4D1) was 4.47, the “LS mean change from baseline, EORTC QLQ-C30 Physical Functioning” value (overall population, C4D1) was 2.38 and the “Difference in LS mean change … GHS/QoL” value (overall population, C5D1) was 5.66. The “Difference in LS mean change, Cemiplimab versus Chemotherapy, Physical Functioning” value (overall population, C5D1) was 6.74, the “LS mean change from baseline, EORTC QLQ-C30 GHS/QoL” value (overall population, C5D1) was 0.48 and the “LS mean change from baseline, EORTC QLQ-C30 Physical Functioning” value (overall population, C5D1) was −1.27. For the same substance, the “Difference in LS mean change … GHS/QoL” value (overall population, C6D1) was 5.44, the “Difference in LS mean change, Cemiplimab versus Chemotherapy, Physical Functioning” value (overall population, C6D1) was 6.93 and the “LS mean change from baseline, EORTC QLQ-C30 GHS/QoL” value (overall population, C6D1) was −0.29. The “LS mean change from baseline, EORTC QLQ-C30 Physical Functioning” value (overall population, C6D1) was −1.34, the “Difference in LS mean change … GHS/QoL” value (overall population, C7D1) was 8.30 and the “Difference in LS mean change, Cemiplimab versus Chemotherapy, Physical Functioning” value (overall population, C7D1) was 11.66. For the same substance, the “LS mean change from baseline, EORTC QLQ-C30 GHS/QoL” value (overall population, C7D1) was 3.32, the “LS mean change from baseline, EORTC QLQ-C30 Physical Functioning” value (overall population, C7D1) was −0.10 and the “Difference in LS mean change … GHS/QoL” value (overall population, C8D1) was 14.08. The “Difference in LS mean change, Cemiplimab versus Chemotherapy, Physical Functioning” value (overall population, C8D1) was 12.96, the “LS mean change from baseline, EORTC QLQ-C30 GHS/QoL” value (overall population, C8D1) was −1.09 and the “LS mean change from baseline, EORTC QLQ-C30 Physical Functioning” value (overall population, C8D1) was −0.89. The “course of GHS/QoL from baseline” value (overall population, EORTC QLQ-C30) was “improved or maintained GHS/QoL from baseline; also recorded: generally improve or maintain their baseline GHS/QOL”, the “Difference in LS mean change … GHS/QoL” value [2] was 7.81 and the “Difference in LS mean change, Cemiplimab versus Chemotherapy, Physical Functioning” value [2] was 8.26. The “LS mean change from baseline, EORTC QLQ-C30 GHS/QoL” value [2] was 1.01 and the “LS mean change from baseline, EORTC QLQ-C30 Physical Functioning” value [2] was −0.45.
